Each structure is given as a SMILES string.

The target of the test is T1, human adenosine A2B receptors (Homo sapiens, UniProt P29275).
T1 construct: expressed in transfected cells
T1 sequence (P29275 1-332): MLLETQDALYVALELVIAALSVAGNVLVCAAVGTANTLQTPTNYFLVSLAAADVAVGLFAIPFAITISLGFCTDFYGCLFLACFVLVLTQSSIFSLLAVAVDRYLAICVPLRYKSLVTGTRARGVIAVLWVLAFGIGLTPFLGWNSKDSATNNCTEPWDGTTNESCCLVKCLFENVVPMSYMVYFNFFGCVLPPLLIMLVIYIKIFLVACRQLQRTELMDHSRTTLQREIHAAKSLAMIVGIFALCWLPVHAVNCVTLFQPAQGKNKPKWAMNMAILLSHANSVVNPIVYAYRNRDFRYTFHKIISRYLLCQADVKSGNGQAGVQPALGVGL
The experiment in a line: FLIPR calcium flux assay in cells expressing human adenosine A2B receptors. The class given is cell-based. To be noted: expressed human adenosine A2B receptors in mammalian cell lines, from dose response curves, read-out: Activity (IC50 activity range). The procedure: The use of a Fluorometric Imaging Plate Reader (FLIPR) to measure calcium flux in Adenosine-receptor expressing cells is a well-established technique. In this assay calcium flux is triggered by receptor activation and measured through the fluorescence of an incorporated calcium-sensitive dye. The potencies shown were determined using expressed human adenosine A2B receptors in mammalian cell lines. Selectivity values were obtained by using mammalian cell lines expressing the human adenosine A1, A2A and A3 receptors. Compound potency was determined from dose response curves and are reported as IC50 values.
For orientation: Calcium assays in cells follow changes in intracellular calcium, usually with a dye or a luminescent sensor.
Turning to `Cn1ccc2c(C(=O)c3cccs3)nc(NCc3cccnc3)nc21` [Example 6, {7-Methyl-2-[(pyridin-3-ylmethyl)-amino]-7H-pyrrolo[2,3d]pyrimidin-4-yl}-thiophen-2-yl-methanone], the IC50 (in general, the concentration needed to halve the response being measured) is less than 500 nM.

On to `CC(Nc1nc(C(=O)c2cccs2)c2ccn(C)c2n1)c1cccnc1` (centres unmarked) [Example 7, [7-Methyl-2-(1-pyridin-3-yl-ethylamino)-7H-pyrrolo[2,3-d]pyrimidin-4-yl]-thiophen-2-yl-methanone], for which the IC50 is less than 500 nM. For `Cc1ccc(C(=O)c2nc(NCc3cccnc3)nc3c2ccn3C)s1` [Example 8, {7-Methyl-2-[(pyridin-3-ylmethyl)-amino]-7H-pyrrolo[2,3-d]pyrimidin-4-yl}-(5-methyl-thiophen-2-yl)-methanone] the value was less than 500 nM; for `Cc1ccc(C(=O)c2nc(NCc3ccccn3)nc3c2ccn3C)s1` [Example 9, {7-Methyl-2-[(pyridin-2-ylmethyl)-amino]-7H-pyrrolo[2,3-d]pyrimidin-4-yl}-(5-methyl-thiophen-2-yl)-methanone], less than 500 nM. Turning to `Cc1ccc(C(=O)c2nc(NCc3ccncc3)nc3c2ccn3C)s1` [Example 10, {7-Methyl-2-[(pyridin-4-ylmethyl)-amino]-7H-pyrrolo[2,3-d]pyrimidin-4-yl}-(5-methyl-thiophen-2-yl)-methanone], the IC50 is greater than 500 nM.

As for `O=C(c1cccs1)c1nc(Cl)nc2[nH]ccc12` [Example 13, (2-Chloro-7H-pyrrolo[2,3-d]pyrimidin-4-yl)-thiophen-2-yl-methanone], the half-maximal inhibitory concentration (IC50) is greater than 500 nM. For `O=C(c1cccs1)c1nc(NCc2ccccn2)nc2[nH]ccc12` [Example 14, {2-[(Pyridin-2-ylmethyl)-amino]-7H-pyrrolo[2,3-d]pyrimidin-4-yl}-thiophen-2-yl-methanone] the value was greater than 500 nM; for `O=C(c1cccs1)c1nc(Cl)nc2c1ccn2Cc1ccccc1` [Example 17, (7-Benzyl-2-chloro-7H-pyrrolo[2,3-d]pyrimidin-4-yl)-thiophen-2-yl-methanone], greater than 500 nM; for `O=C(c1cccs1)c1nc(NCc2cccnc2)nc2c1ccn2Cc1ccccc1` [Example 18, {7-Benzyl-2-[(pyridin-3-ylmethyl)-amino]-7H-pyrrolo[2,3-d]pyrimidin-4-yl}-thiophen-2-yl-methanone], greater than 500 nM. For `CCCCCn1ccc2c(C(=O)c3cccs3)nc(NCc3cccnc3)nc21` [Example 19, {7-Pentyl-2-[(pyridin-3-ylmethyl)-amino]-7H-pyrrolo[2,3-d]pyrimidin-4-yl}-thiophen-2-yl-methanone] the value was greater than 500 nM; for `O=C(c1cccs1)c1nc(NCc2cccnc2)nc2c1ccn2CC1CC1` [Example 20, {7-Cyclopropylmethyl-2-[(pyridin-3-ylmethyl)-amino]-7H-pyrrolo[2,3-d]pyrimidin-4-yl}-thiophen-2-yl-methanone], greater than 500 nM.

Consider `CCCn1ccc2c(C(=O)c3cccs3)nc(NCc3cccnc3)nc21` [Example 21, {7-Propyl-2-[(pyridin-3-ylmethyl)-amino]-7H-pyrrolo[2,3-d]pyrimidin-4-yl}-thiophen-2-yl-methanone], for which the IC50 is greater than 500 nM. For `Cn1cc(Br)c2c(C(=O)c3cccs3)nc(NCc3cccnc3)nc21` [Example 25, {5-Bromo-7-methyl-2-[(pyridin-3-ylmethyl)-amino]-7H-pyrrolo[2,3-d]pyrimidin-4-yl}-thiophen-2-yl-methanone] the value was greater than 500 nM. For `Cn1cc(-c2ccccc2)c2c(C(=O)c3cccs3)nc(NCc3cccnc3)nc21` [Example 26, {7-Methyl-5-phenyl-2-[(pyridin-3-ylmethyl)-amino]-7H-pyrrolo[2,3-d]pyrimidin-4-yl}-thiophen-2-yl-methanone] the value was greater than 500 nM; for `Cn1cc(-c2ccc(S(C)(=O)=O)cc2)c2c(C(=O)c3cccs3)nc(NCc3cccnc3)nc21` [Example 27, {5-(4-Methanesulfonyl-phenyl)-7-methyl-2-[(pyridin-3-ylmethyl)-amino]-7H-pyrrolo[2,3-d]pyrimidin-4-yl}-thiophen-2-yl-methanone], greater than 500 nM. For `COc1ccc(-c2cn(C)c3nc(NCc4cccnc4)nc(C(=O)c4cccs4)c23)cc1` [Example 28, {5-(4-Methoxy-phenyl)-7-methyl-2-[(pyridin-3-ylmethyl)-amino]-7H-pyrrolo[2,3-d]pyrimidin-4-yl}-thiophen-2-yl-methanone] the value was greater than 500 nM; for `COc1ccccc1-c1cn(C)c2nc(NCc3cccnc3)nc(C(=O)c3cccs3)c12` [Example 29, {5-(2-Methoxy-phenyl)-7-methyl-2-[(pyridin-3-ylmethyl)-amino]-7H-pyrrolo[2,3-d]pyrimidin-4-yl}-thiophen-2-yl-methanone], greater than 500 nM; for `Cn1c(Br)cc2c(C(=O)c3cccs3)nc(Cl)nc21` [Example 35, (6-Bromo-2-chloro-7-methyl-7H-pyrrolo[2,3-d]pyrimidin-4-yl)-thiophen-2-yl-methanone], less than 500 nM.

Consider `Cn1c(Cl)cc2c(C(=O)c3cccs3)nc(Cl)nc21` [Example 39, (2,6-Dichloro-7-methyl-7H-pyrrolo[2,3-d]pyrimidin-4-yl)-thiophen-2-yl-methanone], for which the 50% inhibitory concentration (IC50) was less than 500 nM. As to `Cn1c(Cl)cc2c(C(=O)c3cccs3)nc(NCc3cccnc3)nc21` [Example 40, {6-Chloro-7-methyl-2-[(pyridin-3-ylmethyl)-amino]-7H-pyrrolo[2,3-d]pyrimidin-4-yl}-thiophen-2-yl-methanone], the half-inhibitory concentration (IC50) was greater than 500 nM.

These data come from patent publication US20100305143A1, “PYRROLOPYRIMIDINE COMPOUNDS” (VERNALIS (R & D) LTD., priority 2007, published 2010).
